According to patent US9261498B2, “Biomarker for sensitivity to mTOR inhibitor therapy in kidney cancer” (The Regents of the University of California, priority 2005, dated 2016):

Test system: SN12C-CSCG and ACHN-CSCG xenograft tumors
Test: Subcutaneous xenograft tumor growth, parental tumors
Assay type: in vivo, SCID mice
Details: 0.1 mg/kg CCI-779 daily
Description: FIGS. 1A-1E. Effects of VHL knockdown on sensitivity to CCI-779. (a) Immunoblotting of lysates derived from shRNA and control (empty vector, V) in SN12C, using antibodies against VHL (both isoforms detected), HIF-1α, HIF-2α, GLUT-1, CA-IX and β-Actin (as a loading control). (b) SN12C-CSCG and SN12C-VHLshRNA cells (1×10^5) were cultured in 10% serum rich media, in the presence of vehicle, 1 or 10 nM of CCI-779 for 5 days. Cell growth was measured by cell counts (n=3). […] (c) SN12C-CSCG (C1) and SN12C-CSCG shVHL RNA (C2) cells were injected into SCID mice at a dose of 1×10^6 cells per mouse (n=30). […] Phosphorylated-S6 protein in SN12C-CSCG and SN12C-VHL shRNA xenograft tumors treated with vehicle or 0.1 mg/kg of CCI-779 was measured by immunoblot C3 and C4). […]
For in vitro experiments, cells (5×10^4) were plated and treated with 1 and 10 nM CCI-779 (kind gift of J. Gibbons, Wyeth) or vehicle (ethanol). On day 5-post treatment, cells were trypsinized, resuspended in DMEM with 10% FBS and counted using the VI CELL counter (Beckman Coulter), according to the manufacturer's instructions. […] In vivo tumorigenicity was measured by injection of 5×10^5 SN12C-CSCG, ACHN-CSCG, SN12C-CSCG-VHLshRNAi, ACHN-CSCG-VHLshRNAi, SN12C-CSCG-VHLshRNAi-pBABE, SN12C-CSCG-VHLshRNAi-pBABE-HA-HIF-2α (P405A; P531A) cells in 100 μl of Matrigel (Collaborative Biomedical) subcutaneously into the flanks of SCID mice. […]

CO[C@H]1C[C@@H]2CC[C@@H](C)[C@@](O)(O2)C(=O)C(=O)N2CCCC[C@H]2C(=O)O[C@H]([C@H](C)C[C@@H]2CC[C@@H](OC(=O)C(C)(CO)CO)[C@H](OC)C2)CC(=O)[C@H](C)/C=C(\C)[C@@H](O)[C@@H](OC)C(=O)[C@H](C)C[C@H](C)/C=C/C=C/C=C/1C [CCI-779]
growth of the parental tumors: no effect
